Earlier results on 1 molecule are cited in patent US20040204492A1, “Topical composition and method for treating seborrheic dermatitis” (Healthpoint, Ltd., priority 2003, published 2004).

This data set relates to sulfonamide sensitive gram-positive and gram-negative microorganisms. Particulars: microorganisms commonly isolated from secondary cutaneous infections.

As for `CC(=O)NS(=O)(=O)c1ccc(N)cc1.O.[Na]` [Sulfacetamide sodium, Acetamide N-[(4-aminophenyl)sulfonyl]-, monosodium salt, monohydrate], the bacteriostatic effect entry is recorded as “exerts a bacteriostatic effect”.
